This note sets out measurements from ChEMBL document CHEMBL1142159, “Aph(3')-IIc, an aminoglycoside resistance determinant from Stenotrophomonas maltophilia” (2007).

In brackets after ≈: the same amount, converted by molar mass.

Assay [1] deals with Escherichia coli. The assay is described as follows: Antimicrobial activity against recombinant Escherichia coli DH5-alpha expressing pBAD in the presence of arabinose. In kind it is functional. The settings on record: DH5alpha.
The test system of assay [2] is Escherichia coli. In words: Antimicrobial activity against recombinant Escherichia coli DH5-alpha expressing pBAD [aph(3')-2] in the presence of arabinose. Format: functional. The settings on record: DH5alpha.
The test system of assay [3] is Stenotrophomonas maltophilia. In words: Antimicrobial activity against Stenotrophomonas maltophilia K279a (aph FS) mutant. Format: functional.
For assay [4], the system named is Escherichia coli. The assay is described as follows: Antimicrobial activity against recombinant Escherichia coli DHalpha expressing pBAD [aph(3')-2]. Format: functional. The settings on record: DH5alpha.
In assay [5] the test system is Stenotrophomonas maltophilia. In words: Antimicrobial activity against Stenotrophomonas maltophilia K279a mutant. Format: functional.
For assay [6], the system named is Escherichia coli. The assay is described as follows: Antimicrobial activity against recombinant Escherichia coli DH5alpha expressing pBAD. In kind it is functional.
Assay [7] concerns Escherichia coli. Conditions: DH5alpha.
Assay [8] relates to Escherichia coli. The settings on record: DH5alpha. The source holds these as a separate data set.
Assay [9] has as its system Escherichia coli. The settings on record: DH5alpha. This is another data set of the same source.
Assay [10] concerns Escherichia coli. The settings on record: DH5alpha. The source holds these as a separate data set.

Regarding `NC[C@@H]1O[C@H](O[C@H]2[C@@H](O)[C@H](O[C@@H]3[C@@H](O)[C@H](N)C[C@H](N)[C@H]3O[C@H]3O[C@H](CO)[C@@H](O)C[C@H]3N)O[C@@H]2CO)[C@H](N)[C@@H](O)[C@@H]1O[C@H]1O[C@H](CO)[C@@H](O)[C@H](O)[C@@H]1O` [LIVIDOMYCIN], the MIC in the assay on Escherichia coli [1] was found to be 4 µg/mL; in the assay with Escherichia coli [2] it was 8 µg/mL; in [3] it was 128 µg/mL (≈ 168 µM); in the assay on Escherichia coli [4], 4 µg/mL; in assay [5], 128 µg/mL (≈ 168 µM); in the assay with Escherichia coli [6] it was 4 µg/mL.

In the case of `NC[C@H]1O[C@H](O[C@H]2[C@H](O)[C@@H](O[C@H]3O[C@H](CO)[C@@H](O)[C@H](N)[C@H]3O)[C@H](N)C[C@@H]2N)[C@H](O)[C@@H](O)[C@@H]1O` [KANAMYCIN], the MIC worked out at 8 µg/mL (≈ 16.5 µM) in assay [3] and 256 µg/mL (≈ 528 µM) in assay [5].

For GENTAMICIN, the MIC against Escherichia coli [7] was found to be 1 µg/mL; in assay [3], 16 µg/mL; in the assay with Escherichia coli [8], 1 µg/mL; in assay [5] it was 16 µg/mL; in the assay on Escherichia coli [9], 1 µg/mL; in the assay on Escherichia coli [10], 1 µg/mL.

`NC[C@@H]1O[C@H](O[C@H]2[C@@H](O)[C@H](O[C@@H]3[C@@H](O)[C@H](N)C[C@H](N)[C@H]3O[C@H]3O[C@H](CN)[C@@H](O)[C@H](O)[C@H]3N)O[C@@H]2CO)[C@H](N)[C@@H](O)[C@@H]1O` [FRAMYCETIN]: the MIC in the assay on Escherichia coli [1] came to 0.5 µg/mL; with Escherichia coli [2] it was 64 µg/mL; in [3], 64 µg/mL (≈ 104 µM); in the assay on Escherichia coli [4], 0.5 µg/mL; in assay [5], 512 µg/mL (≈ 833 µM); in the assay with Escherichia coli [6] it was 0.5 µg/mL.

With butirosin, the MIC against Escherichia coli [7] stood at 0.125 µg/mL; in [3], 1 µg/mL; against Escherichia coli [8], 0.125 µg/mL; in assay [5], 8 µg/mL; with Escherichia coli [9], 0.125 µg/mL; in the assay on Escherichia coli [10] it was 4 µg/mL.

For the compound `NCC[C@H](O)C(=O)N[C@@H]1C[C@H](N)[C@@H](O[C@H]2O[C@H](CN)[C@@H](O)[C@H](O)[C@H]2O)[C@H](O)[C@H]1O[C@H]1O[C@H](CO)[C@@H](O)[C@H](N)[C@H]1O` [AMIKACIN], the MIC was determined as 0.5 µg/mL in the assay on Escherichia coli [1]; 4 µg/mL in the assay on Escherichia coli [2]; 64 µg/mL (≈ 109 µM) in assay [3]; 0.5 µg/mL in the assay with Escherichia coli [4]; 64 µg/mL (≈ 109 µM) in [5]; 0.5 µg/mL in the assay on Escherichia coli [6].

As to `NC[C@@H]1O[C@H](O[C@H]2[C@@H](O)[C@H](O[C@@H]3[C@@H](O)[C@H](N)C[C@H](N)[C@H]3O[C@H]3O[C@H](CO)[C@@H](O)[C@H](O)[C@H]3N)O[C@@H]2CO)[C@H](N)[C@@H](O)[C@@H]1O` [PAROMOMYCIN], the MIC with Escherichia coli [1] turned out to be 0.25 µg/mL; in the assay with Escherichia coli [2], 128 µg/mL; in [3], 64 µg/mL (≈ 104 µM); with Escherichia coli [4], 0.25 µg/mL; in assay [5] it was 256 µg/mL (≈ 416 µM); in the assay with Escherichia coli [6] it was 0.25 µg/mL.

On to `NC[C@H]1O[C@H](O[C@H]2[C@H](O)[C@@H](O[C@H]3O[C@H](CO)[C@@H](O)[C@H](N)[C@H]3O)[C@H](N)C[C@@H]2N)[C@H](N)C[C@@H]1O` [TOBRAMYCIN], for which the MIC was 0.5 µg/mL in the assay with Escherichia coli [1]; 8 µg/mL in the assay on Escherichia coli [2]; 32 µg/mL (≈ 68.4 µM) in assay [3]; 0.5 µg/mL in the assay on Escherichia coli [4]; 32 µg/mL (≈ 68.4 µM) in assay [5]; 0.5 µg/mL in the assay on Escherichia coli [6].

With `CN[C@@H]1[C@@H](O)[C@@H](O[C@@H]2[C@@H](O)[C@H](O[C@H]3OC(CN)=CC[C@H]3N)[C@@H](N)C[C@H]2N)OC[C@]1(C)O` [SISOMICIN], the MIC in the assay on Escherichia coli [1] was found to be 0.125 µg/mL; with Escherichia coli [2] it was 0.125 µg/mL; in assay [3], 8 µg/mL (≈ 17.9 µM); with Escherichia coli [4], 0.125 µg/mL; in [5] it was 8 µg/mL (≈ 17.9 µM); with Escherichia coli [6], 0.125 µg/mL.

The term MIC denotes the lowest concentration that inhibits growth of the organism.
